Reference: patent US20190160049A1, “2-OXO-1,2-DIHYDROPYRIDINE-3-CARBOXAMIDE COMPOUNDS AND THEIR USE AS DUAL INHIBITORS OF PDK1/AURA” (INTERNATIONAL SOCIETY FOR DRUG DEVELOPMENT S.R.L., priority 2016, published 2019)

Assays:
Assay type in all cases: cell-based
U87MG cells = experiment: U87MG cell proliferation, MTS assay; settings: 72 h
Experimental: FIG. 1 illustrates the effects of SA16 on U87MG cell proliferation of example 3 (a). U87MG cells were treated in complete medium with different concentrations of SA16 (1 nM-100 μM) for 72 h. At the end of treatment, cell proliferation was measured using the MTS assay. The data are expressed as a percentage with respect to that of untreated cells (control), which was set to 100%, and are the mean values±SEM of three independent experiments, each performed in duplicate. The significance of the differences was determined with a one-way ANOVA with Bonferroni post-test: * p<0.05, ** p<0.01, *** p<0.001 vs. control cells;
FIG. 2 illustrates the combined inhibition of PDK1 and Aurora A on U87MG cell proliferation of example 3a. U87MG cells were treated in complete medium with different concentrations of MP7, in the presence or absence of Alisertib, for 72 h. At the end of treatment, cell proliferation was measured using the MTS assay. The data are expressed as a percentage with respect to that of untreated cells (control), which was set to 100%, and are the mean values±SEM of three independent experiments, each performed in duplicate. The significance of the differences was determined with a one-way ANOVA with Bonferroni post-test: * p<0.05, *** p<0.001 vs. control cells; ## p<0.01, ### p<0.001 vs. cells treated with MP7 alone; §§ p<0.01, § § § p<0.001 vs. cells treated with Alisertib alone;
To examine the effects of SA16 on U87MG cell growth/survival, U87MG cells were incubated with different concentrations of the compound SA16 (1 nM-10 μM) for 72 h.
In parallel experiments, U87MG proliferation was assessed in the presence of a well-known PDK1 inhibitor MP7, alone or in combination with the Aurora A inhibitor, Alisertib.

CSC neurospheres = experiment: Sphere-derived cell morphology (neurosphere area, outgrowth of cellular processes); settings: seven days, SA16 10 nM, 1 μM, 10 μM; for area occupied by the neurospheres: 2.5 PIM MP7, 1.5 μM Alisertib
Experimental: FIG. 5 illustrates the effects of SA16 on sphere-derived cell morphology of Example 3c. CSCs were treated for seven days with complete NSC medium containing DMSO (control), or SA16 (10 nM, 1 μM, 10 μM) (A) Representative cell micrographs of control and SA16 (10 μM) after seven days of treatment are shown. The area of the culture plates occupied by the spheres (B) and the length of cellular processes (C) were scored after seven days of treatment. The counts represent the mean values±SEM of two independent experiments. The significance of differences was determined with a one-way ANOVA with Bonferroni post-test: * p<0.05, ** p<0.01, *** p<0.001 vs. control cells.
FIG. 7 illustrates the effects of MP7, Alisertib and of their combined treatment on sphere-derived cell morphology of example 3c. CSCs were treated for seven days with complete NSC medium containing DMSO (control), MP7 and/or alisertib (A) Representative cell micrographs after seven days of treatment are shown. The area of the culture plates occupied by the spheres (B) and the length of cellular processes (C) were scored after seven days of treatment. The counts represent the mean values±SEM of two independent experiments. The significance of differences was determined with a one-way ANOVA with Bonferroni post-test: * p<0.05, *** p<0.001 vs. control cells; ## p<0.01 vs. cells treated with MP7 alone; § p<0.05 vs. cells treated with Alisertib alone.
The effects of SA16 on morphology of neurospheres were evaluated by quantifying the area occupied by the cells in culture plates, as well as the outgrowth of cellular processes.
The inventors then evaluated the effects of MP7, Alisertib and of their combination on CSC differentiation. The cells were incubated with […] MP7, alone or in combination with 1.5 μM Alisertib for seven days.

[1] = test system: cancer stem cell (CSC) neurospheres obtained from U87MG cells; experiment: CSC (GBM stem cell) proliferation, MTS assay; settings: seven days
Experimental: FIG. 3 illustrates the effects of SA16 on CSC proliferation of example 3b. CSCs were treated in complete neurosphere medium with different concentrations of SA16 (1 nM-100 μM) for seven days. At the end of treatment, cell proliferation was measured using the MTS assay. The data are expressed as a percentage with respect to that of untreated cells (control), which was set to 100%, and are the mean values±SEM of three independent experiments, each performed in duplicate. IC50 value after seven days of treatment were calculated from sigmoid dose-response curve;
FIG. 4 illustrates combined inhibition of PDK1 and Aurora A on CSCs proliferation of example 3b. CSCs were treated in complete medium with different concentrations of MP7, in the presence or absence of Alisertib, for seven days. At the end of treatment, cell proliferation was measured using the MTS assay.
The data are expressed as a percentage with respect to that of untreated cells (control), which was set to 100%, and are the mean values±SEM of three independent experiments, each performed in duplicate. The significance of the differences was determined with a one-way ANOVA with Bonferroni post-test: * p<0.05, *** p<0.001 vs. control cells; ## p<0.01, ### p<0.001 vs. cells treated with MP7 alone; §§ p<0.01, § § § p<0.001 vs. cells treated with Alisertib alone;
The inventors also examined the effects of SA16 compound on cancer stem cell (CSC) neurospheres obtained from U87MG cells.

SMILES | effect on U87MG cell proliferation (in words) (U87MG cells) | outgrowth of cellular processes (CSC neurospheres; 1.5 μM Alisertib) | area occupied by the neurospheres (CSC neurospheres) | effect on CSC proliferation (in words) [1]
COc1cc(Nc2ncc3c(n2)-c2ccc(Cl)cc2C(c2c(F)cccc2OC)=NC3)ccc1C(=O)O [Alisertib, 4-{[9-Chloro-7-(2-fluoro-6-methoxyphenyl)-5H-pyrimido[5,4-d][2]benzazepin-2-yl]amino}-2-methoxybenzoic acid] | slightly reduced U87MG cell proliferation | modest but significant outgrowth of cellular processes | reduction in the area occupied by the neurospheres | anti-proliferative effects on CSCs, in a concentration-dependent manner
O=C(N[C@@H](COc1ccc2[nH]c(=O)[nH]c2c1)c1ccccc1)c1cccn(Cc2ccc(F)c(F)c2)c1=O [MP7, 1-(3,4-difluorobenzyl)-2-oxo-N-{(1R)-2-[(2-oxo-2,3-dihydro-1H-benzimidazol-5-yl)oxy]-1-phenylethyl}-1,2-dihydropyridine-3-carboxamide] | did not show a significant inhibition of cell proliferation |  | reduction in the area occupied by the neurospheres | slight effects on U87MG proliferation
